In PubChem BioAssay AID602251 (NMMLSC, 2012):
The source made the active and inactive calls.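 How the source made its calls: active means fitted concentration giving half of the maximal binding block below 66 µM; inactive means the rest.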

molecular target: anti-desmoglein 3 scFv antibody binding to human desmoglein 3 (DSG3); test: inhibitors of anti-DSG3 scFv binding to DSG3, dose response, biochemical, DSG3-coupled beads, scFv-GFP, flow cytometry, Cherry Pick 1 (AID 602251); details: not given

Row | Compound | EC50
1 | CC1CCN(S(=O)(=O)c2ccc3c(c2)c(=O)c(C(=O)NCc2cccs2)cn3C)CC1 | 55.8 µM
2 | Cc1ccc(C(C)C)c(OCC(=O)Nc2ccc(N3CCN(S(C)(=O)=O)CC3)cc2)c1 | 20.9 µM
3 | CCOc1ccc2c(ccc(/C=C/c3cc(C)c4cccnc4c3O)[n+]2C)c1 | 1.08 µM
4 | O=C(O)c1cccc(-n2cccc2/C=C2/NC(=O)N(c3ccc(Cl)cc3)C2=O)c1 | 11.7 µM
5 | COc1ccc2cc(-c3cc(C(=O)OCC(=O)NC4CCS(=O)(=O)C4)c4ccccc4n3)ccc2c1 (configuration not stated) | 19.2 µM
6 | Clc1ccc2nc(CSc3nnc(-c4c[nH]c5ccccc45)o3)cn2c1 | 24.8 µM
7 | Cn1c(SCC(=O)NC2CCCCC2)nnc1-c1cc2cc(Cl)ccc2o1 | 21.1 µM
8 | O=c1c2ccccc2sn1-c1nccs1 | 12.7 µM
9 | COc1cccc2c1NC(C(=O)O)C1CC=CC21 (configuration not stated) | 32.1 µM

same assay, conditions: at 66.1 µM (top of the series)

Row | Compound | binding response, lower = inhibition
10 | CC(=O)c1c(C)n(-c2ccc(C)cc2)c2ccc(O)cc12 | inactive
11 | COc1ccc(NC(=O)Cn2nnc(C(=O)NCc3ccccc3)c2N)cc1Cl | inactive
12 | COc1ccc(NC(=O)c2ccc3c(c2)S(=O)(=O)c2ccccc2C3=O)cc1 | inactive
13 | Cc1cc(NC(=O)CSc2nnc(-c3c[nH]c4ccccc34)n2-c2ccc(F)cc2)no1 | inactive
14 | Cc1nc2ccccc2nc1OCC(=O)Nc1ccc2ccccc2c1 | inactive
15 | N#Cc1cn(-c2ccccc2)nc1-c1ccc2c(c1)OCCO2 | inactive
16 | O=C(NCc1ccccc1)c1ccc(C(=O)NCc2ccccc2)cc1 | inactive
17 | COc1ccc(OC)c(NC(=O)c2nc(-c3ccccc3)oc2C)c1 | inactive
18 | CCOc1ccc(-n2nc3ccc(NC(=O)c4ccc5c(c4)OCCO5)cc3n2)cc1 | inactive
19 | Cc1ccc(CSc2nnc(Nc3ccc(C)cc3)s2)cc1 | inactive
20 | O=C(COC(=O)c1ccc(S(=O)(=O)N2CCCC2)cc1)NCc1ccc(Cl)cc1 | inactive
21 | COC(=O)c1cc(/C=C/c2ccccc2)on1 | inactive
22 | CCOc1ccc(N(CC(=O)NCCSCc2ccco2)S(=O)(=O)c2ccc(C)cc2)cc1 | inactive
23 | O=[N+]([O-])c1ccc(NCCNc2ccc([N+](=O)[O-])cc2)cc1 | inactive
24 | NS(=O)(=O)c1ccc(-c2ccc(/C=C3\SC(=S)N(C4CCS(=O)(=O)C4)C3=O)o2)cc1 (configuration not stated) | inactive
25 | COc1ccccc1CNC(=O)COC(=O)c1ccc(S(=O)(=O)N2CCCCC2)cc1 | inactive
26 | Cc1c(OCC(=O)NCc2ccccn2)ccc2c(-c3ccccc3)cc(=O)oc12 | inactive
27 | O=C(Nc1ccc2oc(=O)ccc2c1)c1ccc(-c2ccccc2[N+](=O)[O-])o1 | inactive
28 | O=C(Nc1ccc(Nc2ccncc2)cc1)c1ccc(Nc2ccnc3ccc([N+](=O)[O-])cc23)cc1 | inactive
29 | O=C(c1cc2cc3ccc(Cl)cc3nc2o1)N1CCN(Cc2ccc3c(c2)OCO3)CC1 | inactive
30 | CN(C(=O)CSc1nc2cc([N+](=O)[O-])ccc2n1-c1ccc(F)cc1)C1CCS(=O)(=O)C1 (configuration not stated) | inactive
31 | CC(=O)c1c(C)n(-c2ccc(Cl)cc2)c2ccc(O)cc12 | inactive
32 | CC(C)OC(=O)CSc1nc2c(cc1C#N)CCCCC2 | inactive
33 | O=C(Nc1nc2cc3c(cc2s1)OCCO3)c1ccc(N2C(=O)CCC2=O)cc1 | inactive
34 | CCOc1ccc(N2CSC(=S)N(c3ccc(OCC)cc3)C2)cc1 | inactive
35 | N=c1oc2ccc3ccccc3c2cc1C(N)=S | inactive
36 | O=C(CSc1nnc(Cc2ccccc2)o1)N1CCc2ccccc21 | inactive
37 | CSCCC(NC(=O)C12CC3CC(CC(C3)C1)C2)C(=O)OCC(=O)c1ccc(C)cc1 (configuration not stated) | inactive
